One experiment relates to eye of a rabbit. Nature of the experiment: Intra-ocular pressure in rabbits after subconjunctival injection. Format: in vivo. As for the experimental part:
Male albino New Zealand rabbits weighing≧2 Kg were used for in vivo experiments performed under various active animal use protocols approved by the Institutional Animal Care and Use Committee at UC Davis. Animals were sedated with an intravenous dose of Napentabarbitol, 1-2 mg/Kg to permit their handling and frequent measurement of intra-ocular pressure (IOP). Topical anesthesia consisting of Proparacaine HCl (Alcaine™) was used for IOP measurements. A pneumatonometer (Mentor O & O Classic Model 30 Penumatonometer™, Norwell, Mass.) calibrated to a known (25 mmHg) pressure prior to each experiment was used for all IOP measurements. This model of Pneumatonometer provides a readout of standard deviation of each measurement; only measurements with a standard deviation of≦1 mmHg were accepted and most were less than 0.5 mmHg. Following sedation, IOP measurements were carried out over at least 30 minutes to assure that a stable baseline IOP was present.
Drugs and/or vehicle was administered to one eye of each animal via subconjunctival injection in order to bypass any barriers to drug penetration, such as an intact corneal and conjunctival epithelium and to achieve rapid and high concentrations of drug, bypassing epithelial barriers. The contralateral eye treated only with vehicle served as a control for each animal. Two syringes were prepared for each experiment, one containing drug and vehicle, the other containing only vehicle. […] Injections raised a prominent bleb, confirming subconjunctival placement of the drug or vehicle. This bleb then smoothed out over about ten minutes, indicating diffusion of the drug or vehicle throughout the subconjunctival space.
Measurements of intra-ocular pressure were taken at various intervals following the subconjunctival administration of the drug and/or vehicle. IOP in both eyes fluctuated over time reflecting the level of anesthesia. During the course of the experiment, the animal handlers and investigators were masked as to which eve had received the drug or control injection.

For experiment [1], the target named is T1, Na—K—Cl cotransport (Bos taurus, UniProt F1MS08).
T1 sequence (F1MS08 1-1204): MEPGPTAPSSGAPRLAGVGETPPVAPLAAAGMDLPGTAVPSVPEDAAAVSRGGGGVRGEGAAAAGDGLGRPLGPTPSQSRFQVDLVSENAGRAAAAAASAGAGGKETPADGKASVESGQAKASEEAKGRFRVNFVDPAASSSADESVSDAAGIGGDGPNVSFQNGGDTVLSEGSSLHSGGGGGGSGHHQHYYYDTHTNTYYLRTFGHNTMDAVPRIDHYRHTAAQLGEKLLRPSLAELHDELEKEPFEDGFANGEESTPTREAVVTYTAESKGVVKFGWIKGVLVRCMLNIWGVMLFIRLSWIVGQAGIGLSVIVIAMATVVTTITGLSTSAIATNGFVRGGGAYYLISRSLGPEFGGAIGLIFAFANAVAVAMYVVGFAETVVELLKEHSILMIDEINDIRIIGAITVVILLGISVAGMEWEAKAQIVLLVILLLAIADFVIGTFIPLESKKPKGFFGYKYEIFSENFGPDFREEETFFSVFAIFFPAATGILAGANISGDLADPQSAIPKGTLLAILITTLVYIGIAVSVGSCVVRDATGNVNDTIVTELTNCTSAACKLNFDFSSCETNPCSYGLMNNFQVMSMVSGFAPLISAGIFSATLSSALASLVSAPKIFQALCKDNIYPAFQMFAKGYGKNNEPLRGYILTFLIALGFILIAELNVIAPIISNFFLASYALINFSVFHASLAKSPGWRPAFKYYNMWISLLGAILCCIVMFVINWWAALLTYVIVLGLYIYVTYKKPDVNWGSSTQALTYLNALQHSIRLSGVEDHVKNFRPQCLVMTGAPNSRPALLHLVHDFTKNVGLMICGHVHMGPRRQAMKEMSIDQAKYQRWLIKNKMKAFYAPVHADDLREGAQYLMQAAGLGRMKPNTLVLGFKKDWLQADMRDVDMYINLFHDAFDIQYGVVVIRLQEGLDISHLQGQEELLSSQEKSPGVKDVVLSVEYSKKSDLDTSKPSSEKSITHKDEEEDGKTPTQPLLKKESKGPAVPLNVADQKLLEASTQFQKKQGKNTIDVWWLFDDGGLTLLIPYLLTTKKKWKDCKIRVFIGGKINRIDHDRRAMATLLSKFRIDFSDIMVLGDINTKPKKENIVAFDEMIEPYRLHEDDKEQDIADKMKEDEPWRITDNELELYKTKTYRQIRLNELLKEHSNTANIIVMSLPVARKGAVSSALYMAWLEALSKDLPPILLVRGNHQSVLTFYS
Nature of the experiment: K influx (86Rb) in bovine TM cell monolayers. The experiment is classed as cell-based. The following applies: bovine TM cells. As for the experimental part: (§1) Details of this method have been published previously (O'Donnell, M. E., supra, 1989). Briefly, bovine or human TM cell monolayers on 24 well plates were equilibrated for 10 minutes at 37° C. in a Hepes-buffered minimal essential medium (MEM) containing (in mM): 144 Na, 147 Cl, 5.8 K, 1.2 Ca, 4.2 HCO3, 0.4 H2PO4, […], 0.4 SO4, 5.6 glucose and 20 Hepes. […] The assay medium also contained ^86Rb (1 μCi/ml) (Dupont New England Nuclear, Boston, Mass.). The assay was terminated by rinsing the wells with ice-cold isotonic MgCl2, then extracting the contents with 0.2% sodium dodecyl sulfate (SDS), and determining the amount of radioactive contents by liquid scintillation. Osmolarities of all preincubation and assay media were verified by osmometry (Model 3W2, Advanced Instruments, Norwood, Mass.).
The effects of hormones, neurotransmitters and second messengers on Bumetanide-sensitive K influx of bovine trabecular meshwork cells were assessed using the procedures of Example 1. […] The control is the Hepes-buffered medium containing Na, K, Cl, CA and other ions as described in Example 1B. […] The data represent the mean values±SEM of quadruplicate determinations from two experiments.

The target of experiment [2] is T2, Na—K—Cl cotransport (Homo sapiens, UniProt P55011).
T2 construct: bovine or human TM cell monolayers on 24 well plates; endogenous in cells; host or cells: primary cultured human trabecular meshwork cells
T2 sequence (P55011 1-1212): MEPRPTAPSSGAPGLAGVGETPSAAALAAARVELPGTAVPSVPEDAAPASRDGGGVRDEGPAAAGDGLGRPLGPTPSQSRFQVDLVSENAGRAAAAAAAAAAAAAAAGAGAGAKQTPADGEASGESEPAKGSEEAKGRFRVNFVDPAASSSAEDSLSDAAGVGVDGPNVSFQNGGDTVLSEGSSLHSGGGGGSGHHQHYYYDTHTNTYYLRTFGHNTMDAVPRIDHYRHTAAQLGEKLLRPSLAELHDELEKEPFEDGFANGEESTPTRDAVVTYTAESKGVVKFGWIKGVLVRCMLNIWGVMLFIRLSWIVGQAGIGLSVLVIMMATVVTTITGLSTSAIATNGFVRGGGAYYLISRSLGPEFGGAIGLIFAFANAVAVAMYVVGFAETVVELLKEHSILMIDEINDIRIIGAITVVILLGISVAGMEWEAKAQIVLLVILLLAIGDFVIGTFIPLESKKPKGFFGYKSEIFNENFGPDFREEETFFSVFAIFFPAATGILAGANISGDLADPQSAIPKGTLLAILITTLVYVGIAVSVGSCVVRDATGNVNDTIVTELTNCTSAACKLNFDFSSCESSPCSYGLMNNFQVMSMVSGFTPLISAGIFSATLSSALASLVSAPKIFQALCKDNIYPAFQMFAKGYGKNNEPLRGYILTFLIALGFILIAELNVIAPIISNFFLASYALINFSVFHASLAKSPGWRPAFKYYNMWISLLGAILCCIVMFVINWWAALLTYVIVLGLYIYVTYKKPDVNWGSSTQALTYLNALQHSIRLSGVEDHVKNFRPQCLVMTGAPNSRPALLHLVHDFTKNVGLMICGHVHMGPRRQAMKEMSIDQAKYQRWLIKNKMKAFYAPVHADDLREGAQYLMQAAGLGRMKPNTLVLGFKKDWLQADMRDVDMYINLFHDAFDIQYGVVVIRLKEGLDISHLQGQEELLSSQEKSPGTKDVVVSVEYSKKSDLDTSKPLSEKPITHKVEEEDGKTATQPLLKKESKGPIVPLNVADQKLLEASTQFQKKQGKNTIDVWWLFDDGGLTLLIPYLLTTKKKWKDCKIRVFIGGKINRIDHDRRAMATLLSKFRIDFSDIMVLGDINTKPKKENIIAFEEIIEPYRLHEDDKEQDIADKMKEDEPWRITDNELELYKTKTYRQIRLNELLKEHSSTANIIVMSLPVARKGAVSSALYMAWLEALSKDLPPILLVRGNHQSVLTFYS
Nature of the experiment: K influx (86Rb) in human TM cell monolayers. The conditions noted are these: human TM cells, 1 mM ethacrynic acid. The experiment is classed as cell-based. The procedure: as §1

The subject of another experiment is bovine TM cells. Nature of the experiment: TM cell volume by electronic cell sizing (Coulter Counter). Format: cell-based. The conditions noted are these: 30 minute exposure; bumetanide 10 μM, ethacrynic acid 1 mM; versus Hepes MEM control. The procedure:
By the second method, TM cells were trypsinized briefly in Ca-free medium, then rinsed with medium containing trypsin inhibitor and suspended in Hepes MEM. Mean cell volumes were then analyzed by electronic cell sizing on a Coulter Counter™ […] (Model ZM), with channelizer (C256), using at least 50,000 cells per data point and an orifice diameter of 140 μm. Aliquots of suspended cells were diluted into Hepes MEM containing the tonicity and/or agents to be evaluated. Mean cell volumes of each suspension aliquot were followed over time, starting at 1 minute after addition of cells to the assay media. Cell suspensions were maintained at 37° C. throughout the assay period. Absolute volumes (picoliters/cell) were calculated from distribution curves of cell diameter, using a standard curve generated by polystyrene latex beads of known diameter.
In order to determine whether the Na—K—Cl cotransporter of TM cells may play a role in restoration of intracellular volume following hypertonicity-induced cell shrinkage, we evaluated the effect of hypertonicity on TM cell volume and Na^+—K^+—2Cl^− cotransport activity. […] The intracellular volume of the cells then increased over a slower time course, with volume recovering to approximately 84% by 33 minutes as shown in FIG. 3A.

The mark [3] stands for this setting: VP 100 nM, NE 10 μM, Ach 1 μM, cAMP 50 μM, cGMP 50 μM, A23187 1 μM, PMA 10 nM, Ca-free medium plus 5 μM BAPTA-AM, control 25.6 ± 0.71.

In the case of `Cc1cccc(Nc2ccncc2S(=O)(=O)NC(=O)NC(C)C)c1` [torasemide], the IOP-lowering effect result with eye of a rabbit (0.1 cc of 1 μM torasemide subconjunctival) is “time coarse and magnitude similar to that seen with bumetanide”. Also, in the experiment with eye of a rabbit (average of two experiments, FIG. 6), the “average IOP lowering effect” value is on record as “over 20%”.

As to `C=C(CC)C(=O)c1ccc(OCC(=O)O)c(Cl)c1Cl` [ethacrynic acid], the “BUMETANIDE-SENSITIVE K INFLUX” value at Na—K—Cl cotransport [1] (1 mM ethacrynic acid) and on Na—K—Cl cotransport [2] was “abolished” throughout. Moreover, in the experiment on bovine TM cells, the intracellular volume result is recorded as “significant reduction”.

As for `CC(=O)OCOC(=O)CN(CC(=O)OCOC(C)=O)c1ccccc1OCCOc1ccccc1N(CC(=O)OCOC(C)=O)CC(=O)OCOC(C)=O` [Ca-free, 1,2-bis (o-aminophenoxy)ethane-N,N,N′,N-tetraacetic acid acetoxymethyl ester], on Na—K—Cl cotransport [1] (setting [3]), the “BUMETANIDE-SENSITIVE K INFLUX” value is reported as 4.9 ± 1.06 μmol/g protein/min.

Take `NS(=O)(=O)c1cc(C(=O)O)c(NCc2ccco2)cc1Cl` [furosemide]: the “time after injection of significant drop in relative IOP” value with eye of a rabbit (0.1 cc of 100 μM furosemide subconjunctival) amounted to 25 min. For the same compound, the “maximal inhibition (relative IOP)” value in the experiment on eye of a rabbit (0.1 cc of 100 μM furosemide subconjunctival, experiment ended at 45 minutes) is listed as 12.4%.

Take `CCCCCCCCCCCCCC(=O)O[C@@H]1[C@@H](C)[C@@]2(O)[C@@H](C=C(CO)C[C@]3(O)C(=O)C(C)=C[C@@H]23)[C@@H]2C(C)(C)[C@]12OC(C)=O` [PMA, phorbol 12-myristate 13-acetate]: the “BUMETANIDE-SENSITIVE K INFLUX” value at Na—K—Cl cotransport [1] (setting [3]) came to 34.0 ± 1.33 μmol/g protein/min.

With `NC(=O)CC[C@@H]1NC(=O)[C@H](Cc2ccccc2)NC(=O)[C@H](Cc2ccc(O)cc2)NC(=O)[C@@H](N)CSSC[C@@H](C(=O)N2CCC[C@H]2C(=O)N[C@@H](CCCN=C(N)N)C(=O)NCC(N)=O)NC(=O)[C@H](CC(N)=O)NC1=O` [VP, vasopressin], the “BUMETANIDE-SENSITIVE K INFLUX” value at Na—K—Cl cotransport [1] (setting [3]) is listed as 40.4 ± 1.05 μmol/g protein/min.

`NS(=O)(=O)c1cc(C(=O)O)cc(NCc2ccccc2)c1Oc1ccccc1` [benzmetanide]: the “time after which significant reduction of IOP was observed” value with eye of a rabbit (0.1 cc of 7.5 μM benzmetanide subconjunctival) turned out to be 15 min. For the same compound, the “decrease in IOP” value in the experiment on eye of a rabbit (0.1 cc of 7.5 μM benzmetanide subconjunctival, after 50 minutes, relative to contralateral control eye) was 24%.

For `Nc1nc2c(nc(Br)n2[C@@H]2O[C@@H]3COP(=O)(O)O[C@H]3[C@H]2O)c(=O)[nH]1` [cGMP, 8-bromo-cyclic GMP], the “BUMETANIDE-SENSITIVE K INFLUX” value at Na—K—Cl cotransport [1] (setting [3]) worked out at 19.7 ± 0.74 μmol/g protein/min.

Turning to `CNc1ccc2oc(C[C@H]3O[C@@]4(CC[C@H]3C)O[C@H]([C@H](C)C(=O)c3ccc[nH]3)[C@H](C)C[C@H]4C)nc2c1C(=O)O` [Compound A23187, A23187], the “BUMETANIDE-SENSITIVE K INFLUX” value on Na—K—Cl cotransport [1] (setting [3]) is 33.4 ± 5.33 μmol/g protein/min.

Values taken from patent US20020016346A1, “Method for enhancing outflow of aqueous humor in treatment of glaucoma” (The Regents University of California, a California …, priority 1994, published 2002).
